Source: ChEMBL document CHEMBL5126646, “Synthesis and Biological Evaluation of Aurachin D Analogues as Inhibitors of Mycobacterium tuberculosis Cytochrome bd Oxidase” (ACS Med Chem Lett, 2022)
Values after ≈ are worked out from the molar mass of the structure shown.

Assays:
[1] = (§1) Inhibition of Mycobacterium tuberculosis cytochrome bd oxidase over expressed in inverted membrane vesicles of Mycobacterium smegmatis deltacydAB assessed as reduction in malate-induced increase in oxygen consumption rate measured after 60 secs in presence of cytochrome bcc-aa3 complex inhibitor TB47 by fluorespirometry; format: cell membranes, Membrane vesicle
[2] = Growth inhibition of nonpathogenic Mycobacterium smegmatis mc2155 incubated for 48 hrs under shaking condition; conditions: mycolicibacterium smegmatis
[3] = tested on: Mycolicibacterium smegmatis; experiment: Growth inhibition of Mycobacterium smegmatis mc2155 harboring deltaqcr mutant incubated for 48 hrs under shaking condition; format: functional
[4] = tested on: Mycobacterium tuberculosis; experiment: Antitubercular activity against Mycobacterium tuberculosis mc26230 incubated for 7 days; format: functional; conditions: mc26230, 168 h, time 7 day
[5] = as §1, with “smegmatis mc2155” for “smegmatis”, “at 120” for “after 60”; format: cell membranes, Membrane vesicle

SMILES | IC50 [1] [µM] | MIC [2] [µM] | MIC [3] [µM] | MIC [4] [µM] | IC50 [5] [µM]
Cc1[nH]c2ccccc2c(=O)c1Cc1ccccc1 | 4.8 | > 512 | > 512 | 32 (≈ 7.98 µg/mL) | –
CC(C)=CCC/C(C)=C/Cc1c(C)[nH]c2ccc(N)cc2c1=O | 33 | > 512 | > 512 | > 512 | –
COc1cccc2c(=O)c(C/C=C(\C)CC/C=C(\C)CCC=C(C)C)c(C)[nH]c12 | 1.3 | > 512 | > 512 | 64 (≈ 25.2 µg/mL) | –
CC(C)=CCC/C(C)=C/CC/C(C)=C/Cc1c(C)[nH]c2ccc([N+](=O)[O-])cc2c1=O | 1.8 | > 512 | > 512 | > 512 | –
CC(C)=CCC/C(C)=C/CC/C(C)=C/Cc1c(C)[nH]c2ccc(N=[N+]=[N-])cc2c1=O | 4.7 | > 512 | > 512 | 512 (≈ 207 µg/mL) | –
CC(C)=CCC/C(C)=C/CC/C(C)=C/Cc1c(C)[nH]c2cccc(O)c2c1=O | 0.61 | > 512 | > 512 | 256 (≈ 97.2 µg/mL) | –
CC(C)=CCC/C(C)=C/CC/C(C)=C/Cc1c(C)[nH]c2cc(C(F)(F)F)ccc2c1=O | > 1000 | > 512 | > 512 | > 512 | –
CC(C)=CCC/C(C)=C/CC/C(C)=C/Cc1c(C)[nH]c2cc(N)ccc2c1=O | 1.8 | > 512 | > 512 | > 512 | –
COc1ccc2c(=O)c(C/C=C(\C)CC/C=C(\C)CCC=C(C)C)c(C)[nH]c2c1 | 0.13 | > 512 | > 512 | > 512 | –
CC(C)=CCC/C(C)=C/CC/C(C)=C/Cc1c(C)[nH]c2cc(C)ccc2c1=O | 31 | > 512 | > 512 | > 512 | –
CC(C)=CCC/C(C)=C/CC/C(C)=C/Cc1c(C)[nH]c2ccc(F)cc2c1=O | 0.25 | > 512 | > 512 | 8 (≈ 3.05 µg/mL) | –
COc1cccc2[nH]c(C)c(C/C=C(\C)CC/C=C(\C)CCC=C(C)C)c(=O)c12 | 0.36 | > 512 | > 512 | 32 (≈ 12.6 µg/mL) | –
CC(C)=CCC[C@@H](C)CCc1c(C)[nH]c2ccccc2c1=O | 0.35 | > 512 | > 512 | 4 (≈ 1.19 µg/mL) | –
CC(C)=CCC/C(C)=C/CC/C(C)=C/Cc1c(C)[nH]c2ccc(O)cc2c1=O | 0.59 | > 512 | > 512 | 256 (≈ 97.2 µg/mL) | –
CC(C)=CCC[C@@H](C)CCc1c(C)[nH]c2cc(N)ccc2c1=O | 52 | > 512 | > 512 | 512 (≈ 160 µg/mL) | –
CC(C)=CCC/C(C)=C/CC/C(C)=C/Cc1c(C)[nH]c2ccc(N)cc2c1=O | 5 | > 512 | > 512 | > 512 | –
CC(C)=CCC/C(C)=C/CC/C(C)=C/Cc1c(C)[nH]c2ccc(Cl)cc2c1=O | 9 | > 512 | > 512 | > 512 | –
CC(C)=CCC/C(C)=C/CC/C(C)=C/Cc1c(C)[nH]c2cc(F)ccc2c1=O | 0.37 | > 512 | > 512 | 256 (≈ 97.7 µg/mL) | –
CC(C)=CCC/C(C)=C/CC/C(C)=C/Cc1c(C)[nH]c2cc(Cl)cc(Cl)c2c1=O | 4.6 | > 512 | > 512 | > 512 | –
COc1ccc2[nH]c(C)c(C/C=C(\C)CC/C=C(\C)CCC=C(C)C)c(=O)c2c1 | 0.67 | > 512 | > 512 | 256 (≈ 101 µg/mL) | –
CC(C)=CCC/C(C)=C/CC/C(C)=C/Cc1c(C)[nH]c2cc(Cl)ccc2c1=O | > 1000 | > 512 | > 512 | > 512 | –
CC(C)=CCC/C(C)=C/Cc1c(C)[nH]c2ccccc2c1=O | 1.1 | > 512 | > 512 | > 512 | –
CC(C)=CCc1c(C)[nH]c2ccccc2c1=O | 5.8 | > 512 | > 512 | 32 (≈ 7.27 µg/mL) | –
CC(C)=CCC/C(C)=C/CC/C(C)=C/Cc1c(C)[nH]c2cccc(F)c2c1=O | 7.5 | > 512 | > 512 | 256 (≈ 97.7 µg/mL) | –
CC(C)=CCC/C(C)=C/CC/C(C)=C/Cc1c(C)[nH]c2ccccc2c1=O [AURACHIN D] | – | > 512 | > 512 | 8 (≈ 2.91 µg/mL) | 0.15
